# Assay results as given in PMC6994103 (PLoS Neglected Tropical Diseases, 2020).
# Values joined by “and” are separate entries in the source; they are usually repeats but may differ in a detail not shown here. Equal values may be shown once.
# System: T. cruzi epimastigotes Y strain
# Assay: Synergism BZL with LTD-CPH-CFZ in epimastigotes, Y strain (CompuSyn)
# Assay type: cell-based, Trypanosoma cruzi
# Procedure: Parasites´ growth was evaluated at different concentrations of BZL, CV and CV structural analogues, and parasite proliferation was determined after 48 h. […] Growth was determined by counting in a Neubauer chamber and viability assays by using “Cell Titer 96 Aqueous One Solution Cell Proliferation Assay (MTS)” (Promega, Madison, WI, USA) according to the manufacturer’s instructions. Amastigotes were fixed with methanol, stained and mounted with Vectashield with DAPI (Vector Laboratories, Burlingame, CA, USA), and then the non-lysed cells were counted by using fluorescence microscopy. Calculations were performed using CompuSyn software (http://combosyn.com) which is based on the median-effect equation [48] and its extension, the combination index.
structure (smiles),measurement,setting,value
O=C(Cn1ccnc1[N+](=O)[O-])NCc1ccccc1 [Benznidazole],DRI BZL,BZL 0.10 µM + LTD-CPH-CFZ 3.40 µM (1/25 IC50),16.63 ± 2.78
same,DRI BZL,BZL 0.10 µM + LTD-CPH-CFZ 8.50 µM (1/10 IC50),73.67 ± 4.95
same,DRI BZL,BZL 0.10 µM + LTD-CPH-CFZ 17.00 µM (1/5 IC50),374.17 ± 32.50
same,DRI BZL,BZL 0.10 µM + LTD-CPH-CFZ 42.50 µM (1/2 IC50),923.66 ± 175.14
same,DRI BZL,BZL 1.00 µM + LTD-CPH-CFZ 3.40 µM (1/25 IC50),5.12 ± 0.06
same,DRI BZL,BZL 1.00 µM + LTD-CPH-CFZ 8.50 µM (1/10 IC50),13.27 ± 2.61
same,DRI BZL,"BZL 1.00 µM + LTD-CPH-CFZ 17.00 µM (1/5 IC50), listed as BZL",54 and 53.83 ± 6.79
same,DRI BZL,BZL 1.00 µM + LTD-CPH-CFZ 42.50 µM (1/2 IC50),157.01 ± 24.63
same,DRI BZL,BZL 5.00 µM + LTD-CPH-CFZ 3.40 µM (1/25 IC50),2.45 ± 0.40
same,DRI BZL,BZL 5.00 µM + LTD-CPH-CFZ 8.50 µM (1/10 IC50),5.48 ± 0.48
same,DRI BZL,BZL 5.00 µM + LTD-CPH-CFZ 17.00 µM (1/5 IC50),10.31 ± 1.72
same,DRI BZL,BZL 5.00 µM + LTD-CPH-CFZ 42.50 µM (1/2 IC50),63.09 ± 8.25
same,DRI BZL,BZL 10.00 µM + LTD-CPH-CFZ 3.40 µM (1/25 IC50),3.89 ± 0.11
same,DRI BZL,BZL 10.00 µM + LTD-CPH-CFZ 8.50 µM (1/10 IC50),5.45 ± 0.19
same,DRI BZL,BZL 10.00 µM + LTD-CPH-CFZ 17.00 µM (1/5 IC50),10.20 ± 0.87
same,DRI BZL,BZL 10.00 µM + LTD-CPH-CFZ 42.50 µM (1/2 IC50),45.77 ± 3.03
same,DRI BZL,BZL 20.00 µM + LTD-CPH-CFZ 3.40 µM (1/25 IC50),5.88 ± 0.56
same,DRI BZL,BZL 20.00 µM + LTD-CPH-CFZ 8.50 µM (1/10 IC50),7.44 ± 0.23
same,DRI BZL,BZL 20.00 µM + LTD-CPH-CFZ 17.00 µM (1/5 IC50),10.94 ± 1.56
same,DRI BZL,BZL 20.00 µM + LTD-CPH-CFZ 42.50 µM (1/2 IC50),68.51 ± 13.29
same,Dose BZL alone,same effect (Fa 0.112) as BZL 0.10 µM + LTD-CPH-CFZ 3.40 µM,1.66 ± 0.28 µM
same,Dose BZL alone,same effect (Fa 0.257) as BZL 1.00 µM + LTD-CPH-CFZ 3.40 µM,5.12 ± 0.06 µM
same,Dose BZL alone,same effect (Fa 0.324) as BZL 0.10 µM + LTD-CPH-CFZ 8.50 µM,7.37 ± 0.49 µM
same,Dose BZL alone,same effect (Fa 0.430) as BZL 5.00 µM + LTD-CPH-CFZ 3.40 µM,12.27 ± 2.01 µM
same,Dose BZL alone,same effect (Fa 0.447) as BZL 1.00 µM + LTD-CPH-CFZ 8.50 µM,13.27 ± 2.61 µM
same,Dose BZL alone,same effect (Fa 0.609) as BZL 5.00 µM + LTD-CPH-CFZ 8.50 µM,27.38 ± 2.41 µM
same,Dose BZL alone,same effect (Fa 0.673) as BZL 0.10 µM + LTD-CPH-CFZ 17.00 µM,37.42 ± 3.25 µM
same,Dose BZL alone,same effect (Fa 0.682) as BZL 10.00 µM + LTD-CPH-CFZ 3.40 µM,38.95 ± 1.06 µM
same,Dose BZL alone,same effect (Fa 0.732) as BZL 5.00 µM + LTD-CPH-CFZ 17.00 µM,51.57 ± 8.60 µM
same,Dose BZL alone,same effect (Fa 0.740) as BZL 1.00 µM + LTD-CPH-CFZ 17.00 µM,53.83 ± 6.79 µM
same,Dose BZL alone,same effect (Fa 0.743) as BZL 10.00 µM + LTD-CPH-CFZ 8.50 µM,54.45 ± 1.86 µM
same,Dose BZL alone,same effect (Fa 0.821) as BZL 0.10 µM + LTD-CPH-CFZ 42.50 µM,92.37 ± 17.51 µM
same,Dose BZL alone,same effect (Fa 0.835) as BZL 10.00 µM + LTD-CPH-CFZ 17.00 µM,101.97 ± 8.68 µM
same,Dose BZL alone,same effect (Fa 0.852) as BZL 20.00 µM + LTD-CPH-CFZ 3.40 µM,117.55 ± 11.14 µM
same,Dose BZL alone,same effect (Fa 0.877) as BZL 20.00 µM + LTD-CPH-CFZ 8.50 µM,148.83 ± 4.56 µM
same,Dose BZL alone,same effect (Fa 0.881) as BZL 1.00 µM + LTD-CPH-CFZ 42.50 µM,157.01 ± 24.63 µM
same,Dose BZL alone,same effect (Fa 0.909) as BZL 20.00 µM + LTD-CPH-CFZ 17.00 µM,218.81 ± 31.25 µM
same,Dose BZL alone,same effect (Fa 0.933) as BZL 5.00 µM + LTD-CPH-CFZ 42.50 µM,315.46 ± 41.27 µM
same,Dose BZL alone,same effect (Fa 0.951) as BZL 10.00 µM + LTD-CPH-CFZ 42.50 µM,457.73 ± 30.35 µM
same,Dose BZL alone,same effect (Fa 0.981) as BZL 20.00 µM + LTD-CPH-CFZ 42.50 µM,1370.11 ± 265.72 µM
